Biological target: T1, enzymes in the synthesis of aldosterone (Rattus norvegicus, UniProt P30099)
T1 construct: adrenal capsule/glomerulosa homogenates were prepared (6 mg/ml); from tissue; host or cells: adrenal capsule/glomerulosa of sodium-deficient young male Sprague-Dawley rats (homogenate, 500xg supernatant)
Experiment: inhibition of aldosterone formation from [3H]-DOC in adrenal capsule/glomerulosa homogenates
Format: biochemical, Sprague-Dawley rats
Conditions: Kitz-Wilson plots, rat adrenal capsule/glomerulosa homogenate
Method: Young male Sprague-Dawley rats were maintained on a sodium-deficient diet for about two weeks prior to use. From these animals, adrenal capsule/glomerulosa homogenates were prepared (6 mg/ml) in pH 7.4 assay buffer [MgCl2 8.5 mM, CaCl2 2.7 mM, KCl 3.13 mM, NaCl 7.591 mM, TRIS 50 mM and 0.1% triethylamine] and centrifuged 500xg for 10 minutes.
Assays were conducted in 35 ml glass tubes maintained at 25° C. in a Dubnoff shaker with 95% O2 /5% CO2. The tubes contained the following material: 100 μl of an NADPH+ generating system, 300 μl of adrenal capsular/glomerulosa cytosol, and 50 μl of test compound or buffer (control). After initial preincubation intervals of 20 minutes, the 10-minute assay was started by the addition of 50 μl of tritium-labelled substrate, i.e., 1 μM [^3 H]-DOC. Reactions were quenched by the addition of 5 ml of ethyl acetate and non-radiolabelled steroids were also added. […]
Substrate remaining and products formed were monitored by UV absorbance at 246 nm and the amount of steroid compound present was quantified by [^3 H] radioactivity. […] The Ki time-dependent inhibition and the t1/2 for enzyme inactivation at infinite inhibitor concentration (t50) was determined by the linear regression analyses of t1/2 vs. 1/[I] data of Kitz-Wilson plots Using this procedure, the following results were observed: […]

SMILES	t50 (t1/2 for enzyme inactivation at infinite inhibitor concentration) [min]
CN(C1CC1)[C@H]1CC[C@H]2[C@@H]3CCC4=CC(=O)CC[C@]4(C)[C@H]3CC[C@]12C [17β-[N-methyl(cyclopropylamino)]androst-4-en-3-one]	15.4
CN(C1CC1)[C@H]1CC[C@H]2[C@@H]3CC=C4C[C@@H](O)CC[C@]4(C)[C@H]3CC[C@]12C [17β-[N-methyl(cyclopropylamino)]androst-5-en-3β-ol]	9.0
